Test results as given in patent publication US10730889B2, “Amido spirocyclic amide and sulfonamide derivatives” (Forma TM, LLC, priority 2012, dated 2020).

These compounds were tested on A2780 cells (assay: In-vitro cell proliferation assay (SRB, 72 hours)). Settings: Homo sapiens, A2780, 72 h, A2780 cells, 72 hours, SRB; read-out: Cell Proliferation (IC50).
Assay type: cell-based

Q: With `O=C(NCC1CC12CCN(C(=O)c1cn[nH]c1)CC2)c1cc2ccncc2o1` (centres unmarked) [Example 141, N-[[6-(1H-pyrazole-4-carbonyl)-6-azaspiro[2.5]octan-2-yl]methyl]furo[2,3-c]pyridine-2-carboxamide] as the compound, how does the IC50 read?
A: 2000 nM

Q: With `CS(=O)(=O)N1CCC(CC(=O)N2CCC3(CC2)CC3CNC(=O)c2cc3ccncc3o2)CC1` (centres unmarked) [Example 142, N-[[6-[2-(1-methylsulfonyl-4-piperidyl)acetyl]-6-azaspiro[2.5]octan-2-yl]methyl]furo[2,3-c]pyridine-2-carboxamide] as the compound, how does the IC50 read?
A: 97.1 nM

Q: With `CN1CCOC(C(=O)N2CCC3(CC2)CC3CNC(=O)c2cc3ccncc3o2)C1` (centres unmarked) [Example 143, N-[[6-(4-methylmorpholine-2-carbonyl)-6-azaspiro[2.5]octan-2-yl]methyl]furo[2,3-c]pyridine-2-carboxamide] as the compound, how does the IC50 read?
A: 2000 nM

Q: With `CC(C)C(=O)N1CC(C(=O)N2CCC3(CC2)CC3CNC(=O)c2cc3ccncc3o2)C1` (centres unmarked) [Example 144, N-[[6-[1-(2-methylpropanoyl)azetidine-3-carbonyl]-6-azaspiro[2.5]octan-2-yl]methyl]furo[2,3-c]pyridine-2-carboxamide] as the compound, how does the IC50 read?
A: 375 nM

Q: With `CC(=O)N1CC(C(=O)N2CCC3(CC2)CC3CNC(=O)c2cc3ccncc3o2)C1` (centres unmarked) [Example 145, N-[[6-(1-acetylazetidine-3-carbonyl)-6-azaspiro[2.5]octan-2-yl]methyl]furo[2,3-c]pyridine-2-carboxamide] as the compound, how does the IC50 read?
A: 2000 nM

Q: How did the IC50 turn out when `O=C(NCC1CC12CCN(C(=O)C1CCN(c3cccnn3)C1)CC2)c1cc2ccncc2o1` (centres unmarked) [Example 146, N-[[6-(1-pyridazin-3-ylpyrrolidine-3-carbonyl)-6-azaspiro[2.5]octan-2-yl)methyl]furo[2,3-c]pyridine-2-carboxamide] was run?
A: 74.5 nM

Q: With `O=C(NCC1CC12CCN(C(=O)CC1CCN(c3ncccn3)CC1)CC2)c1cc2ccncc2o1` (centres unmarked) [Example 147, N-[[6-[2-(1-pyrimidin-2-yl-4-piperidyl)acetyl]-6-azaspiro[2.5]octan-2-yl]methyl]furo[2,3-c]pyridine-2-carboxamide] as the compound, how does the IC50 read?
A: 74.4 nM

Q: For `CC(C)N1CCC(CC(=O)N2CCC3(CC2)CC3CNC(=O)c2cc3ccncc3o2)CC1` (centres unmarked) [Example 148, N-[[6-[2-(1-isopropyl-4-piperidyl)acetyl]-6-azaspiro[2.5]octan-2-yl]methyl]furo[2,3-c]pyridine-2-carboxamide], which IC50 is on record?
A: 102 nM

Q: For `CN1CCC(CC(=O)N2CCC3(CC2)CC3CNC(=O)c2cc3ccncc3o2)CC1` (centres unmarked) [Example 149, N-[(6-[2-(1-methyl-4-piperidyl)acetyl]-6-azaspiro[2.5]octan-2-yl]methyl]furo[2,3-c]pyridine-2-carboxamide], which IC50 is on record?
A: 496 nM

Q: How did the IC50 turn out when `CC1(CC(=O)N2CCC3(CC2)CC3CNC(=O)c2cc3cnccc3[nH]2)COC1` (centres unmarked) [Example 150, N-([6-[2-(3-methyloxetan-3-yl)acetyl]-6-azaspiro[2.5]octan-1-yl]methyl)-1H-pyrrolo[3,2-c]pyridine-2-carboxamide] was run?
A: 265 nM

Q: `N#Cc1ccccc1CC(=O)N1CCC2(CC1)CC2CNC(=O)c1cc2ccncc2o1` (centres unmarked) [Example 152, N-[[6-[2-(2-cyanophenyl)acetyl]-6-azaspiro[2.5]octan-2-yl]methyl]furo[2,3-c]pyridine-2-carboxamide] was tested. Which IC50 did it give?
A: 262 nM

Q: How did the IC50 turn out when `COCCC(=O)N1CCC2(CC1)CC2CNC(=O)c1cc2ccncc2o1` (centres unmarked) [Example 153, N-[[6-(3-methoxypropanoyl)-6-azaspiro[2.5]octan-2-yl]methyl]furo[2,3-c]pyridine-2-carboxamide] was run?
A: 2000 nM

Q: For `O=C(NCC1CC12CCN(C(=O)Cc1ccc(S(=O)(=O)C(F)(F)F)cc1)CC2)c1cc2ccncc2o1` (centres unmarked) [Example 154, N-[[6-[2-[4-(trifluoromethylsulfonyl)phenyl]acetyl]-6-azaspiro[2.5]octan-2-yl]methyl]furo[2,3-c]pyridine-2-carboxamide], which IC50 is on record?
A: 2610 nM

Q: Which IC50 does the source give for `CC(=O)N(C)CCC(=O)N1CCC2(CC1)CC2CNC(=O)c1cc2ccncc2o1` (centres unmarked) [Example 155, N-[[6-[3-[acetyl(methyl]amino]propanoyl]-6-azaspiro[2.5]octan-2-yl]methyl]furo[2,3-c]pyridine-2-carboxamide] here?
A: 2000 nM

Q: `N#Cc1ccc(NC(=O)N2CCC3(CC2)CC3CNC(=O)c2cc3ccncc3o2)cc1` (centres unmarked) [Example 157, N-[[6-[(4-cyanophenyl)carbamoyl]-6-azaspiro[2.5]octan-2-yl)methyl]furo[2,3-c]pyridine-2-carboxamide] was tested. Which IC50 did it give?
A: 2000 nM

Q: `Cc1cccc(CNC(=O)N2CCC3(CC2)CC3CNC(=O)c2cc3ccncc3o2)c1` (centres unmarked) [Example 158, N-[[6-(m-tolylmethylcarbamoyl)-6-azaspiro[2.5]octan-2-yl]methyl]furo[2,3-c]pyridine-2-carboxamide] was tested. Which IC50 did it give?
A: 2000 nM

Q: How did the IC50 turn out when `Cc1ccc(NC(=O)N2CCC3(CC2)CC3CNC(=O)c2cc3ccncc3o2)cc1` (centres unmarked) [Example 159, N-[[6-(p-tolylcarbamoyl)-6-azaspiro[2.5]octan-2-yl]methyl]furo[2,3-c]pyridine-2-carboxamide] was run?
A: 274 nM

Q: With `O=C(NCC1CC12CCN(C(=O)NCc1ccccc1)CC2)c1cc2ccncc2o1` (centres unmarked) [Example 160] as the compound, how does the IC50 read?
A: 2000 nM

Q: For `O=C(NCC1CC12CCN(C(=O)NCc1ccccc1F)CC2)c1cc2ccncc2o1` (centres unmarked) [Example 161, N-[[6-[(2-fluorophenyl)methylcarbamoyl]-6-azaspiro[2.5]octan-2-yl]methyl]furo[2,3-c]pyridine-2-carboxamide], which IC50 is on record?
A: 2000 nM

Q: `Cc1ccc(CNC(=O)N2CCC3(CC2)CC3CNC(=O)c2cc3ccncc3o2)cc1` (centres unmarked) [Example 162, N-[[6-(p-tolylmethylcarbamoyl)-6-azaspiro[2.5]octan-2-yl]methyl]furo[2,3-c]pyridine-2-carboxamide] was tested. Which IC50 did it give?
A: 2000 nM

Q: How did the IC50 turn out when `O=C(NCC1CC12CCN(C(=O)NCc1ccc(F)cc1)CC2)c1cc2ccncc2o1` (centres unmarked) [Example 163, N-[[6-[(4-fluorophenyl)methylcarbamoyl]-6-azaspiro[2.5]octan-2-yl]methyl]furo[2,3-c]pyridine-2-carboxamide] was run?
A: 2000 nM

Q: `COc1ccccc1CNC(=O)N1CCC2(CC1)CC2CNC(=O)c1cc2ccncc2o1` (centres unmarked) [Example 164, N-[[6-((2-methoxyphenyl)methylcarbamoyl]-6-azaspiro[2.5]octan-2-yl]methyl]furo[2,3-c]pyridine-2-carboxamide] was tested. Which IC50 did it give?
A: 1540 nM

Q: With `COc1cccc(CNC(=O)N2CCC3(CC2)CC3CNC(=O)c2cc3ccncc3o2)c1` (centres unmarked) [Example 165, N-[[6-[(3-methoxyphenyl)methylcarbamoyl]-6-azaspiro[2.5]octan-2-yl]methyl]furo[2,3-c]pyridine-2-carboxamide] as the compound, how does the IC50 read?
A: 2000 nM

Q: `O=C(NCC1CC12CCN(C(=O)NCc1cccc(F)c1)CC2)c1cc2ccncc2o1` (centres unmarked) [Example 166, N-[[6-[(3-fluorophenyl)methylcarbamoyl]-6-azaspiro[2.5]octan-2-yl]methyl]furo[2,3-c]pyridine-2-carboxamide] was tested. Which IC50 did it give?
A: 2000 nM

Q: With `COc1ccc(CNC(=O)N2CCC3(CC2)CC3CNC(=O)c2cc3ccncc3o2)cc1` (centres unmarked) [Example 167, N-[[6-[(4-methoxyphenyl)methylcarbamoyl]-6-azaspiro[2.5]octan-2-yl]methyl]furo[2,3-c]pyridine-2-carboxamide] as the compound, how does the IC50 read?
A: 2000 nM

Q: `O=C(NCC1CC12CCN(C(=O)NCc1ccc(Cl)c(Cl)c1)CC2)c1cc2ccncc2o1` (centres unmarked) [Example 168, N-[[6-[(3,4-dichlorophenyl)methylcarbamoyl]-6-azaspiro[2.5]octan-2-yl]methyl]furo[2,3-c]pyridine-2-carboxamide] was tested. Which IC50 did it give?
A: 2000 nM
